Values after ≈ are worked out from the molar mass of the structure shown.
Legend:
Bacillus subtilis = assay: Antibacterial MIC, serial dilution in 96-well plates
Description: (§1) All measurements were conducted in triplicate. Ampicillin and ketoconazole were applied as positive controls for antibacterial and antifungal assays, respectively, and DMSO was utilized as a blank control.

Staphylococcus aureus = assay: as above
Description: as §1

[1] = system: methicillin-resistant Staphylococcus aureus (MRSA); assay: as above
Description: as §1

Salmonella typhimurium = assay: as above; conditions: Salmonella enterica
Description: as §1

Pseudomonas aeruginosa = assay: as above
Description: as §1

Cytotoxicity, MTT assay = format: cell-based; conditions: human, A549 lung cancer cells
Description: The cytotoxicities of compounds 1–10 and eujavanicol A on cells were assessed using MTT assay as described previously. Six cell lines were used, MDA-MB-435 (breast cancer cells), MDA-MB-231 (breast cancer cells), HCT116 (colon cancer cells), A549 (lung cancer cells), SNB19 (glioma cells), and PC3 (prostate cancer cells), which were acquired from Fu Erbo Biotechnology Co., Ltd. (Guangzhou, China).

Candida albicans = assay: Antifungal MIC, serial dilution in 96-well plates
Description: as §1

Penicillium italicum = assay: Antifungal MIC, serial dilution in 96-well plates
AChE = AChE (Homo sapiens, UniProt P22303); assay: biochemical; conditions: average of two independent experiments; read-out: IC50 for AChE inhibitory activities
AChE, sequence (P22303 32-614): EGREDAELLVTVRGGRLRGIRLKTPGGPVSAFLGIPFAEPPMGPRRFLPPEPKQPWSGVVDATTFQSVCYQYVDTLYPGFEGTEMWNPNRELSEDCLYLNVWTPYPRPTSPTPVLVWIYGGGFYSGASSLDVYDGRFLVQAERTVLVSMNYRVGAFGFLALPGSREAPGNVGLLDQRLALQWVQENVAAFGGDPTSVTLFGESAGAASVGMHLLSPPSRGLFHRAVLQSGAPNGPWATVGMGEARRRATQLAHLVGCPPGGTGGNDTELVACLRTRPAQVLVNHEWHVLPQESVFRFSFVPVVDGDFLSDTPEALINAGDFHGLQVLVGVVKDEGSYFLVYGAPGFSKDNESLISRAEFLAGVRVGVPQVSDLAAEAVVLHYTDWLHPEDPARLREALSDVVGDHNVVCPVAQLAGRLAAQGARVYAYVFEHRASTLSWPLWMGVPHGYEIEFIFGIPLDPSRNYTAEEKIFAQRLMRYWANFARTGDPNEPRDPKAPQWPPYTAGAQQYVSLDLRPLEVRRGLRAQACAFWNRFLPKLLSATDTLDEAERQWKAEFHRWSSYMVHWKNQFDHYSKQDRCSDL
Description: Donepezil hydrochloride was taken as a positive control. All measurements were conducted in triplicate from two independent experiments. The reported IC50 was the average value of two independent experiments.

Row | SMILES | MIC (Bacillus subtilis) [µM] | MIC (Staphylococcus aureus) [µM] | MIC [1] [µM] | MIC (Salmonella typhimurium) [µM] | MIC (Pseudomonas aeruginosa) [µM] | IC50 (Cytotoxicity, MTT assay) [µM] | MIC (Candida albicans) [µM] | MIC (Penicillium italicum) [µM] | IC50 (AChE) [µM]
1 | CC1(C)S[C@@H]2[C@H](NC(=O)[C@H](N)c3ccccc3)C(=O)N2[C@H]1C(=O)O [Ampicillin, reference compound] | 0.25 (≈ 0.0874 µg/mL) | 0.25 (≈ 0.0874 µg/mL) | 0.25 (≈ 0.0874 µg/mL) | 0.25 (≈ 0.0874 µg/mL) | 0.13 (≈ 0.0454 µg/mL) | – | – | – | –
2 | COc1cc(O)c2c(=O)c(C3CC(O)C(=O)O3)c(C)oc2c1 (centres unmarked) [Compound 1, 5-hydroxy-3-((3’R, 5’S)-3’-hydroxy-2’-oxotetrahydrofuran-5’-yl)-7-methoxy-2-methyl-4H-chromen-4-one] | > 100 | > 100 | > 100 | > 100 | > 100 | 47.2 ± 5.5 | 50 (≈ 15.3 µg/mL) | > 100 | 38.6 ± 0.2
3 | COc1cc(OC)c2c(=O)c(CO)c(C)oc2c1 [Compound 2, 3-(hydroxymethyl)-5,7-dimethoxy-2-methyl-4H-chromen-4-one] | > 100 | > 100 | > 100 | > 100 | > 100 | – | 100 (≈ 25 µg/mL) | > 100 | 33.7 ± 0.4
4 | COc1cc(O)c2c(=O)c(CO)c(C)oc2c1 [Compound 3, 5-hydroxy-3-(hydroxymethyl)-7-methoxy-2-methyl-4H-chromen-4-one] | > 100 | > 100 | > 100 | > 100 | > 100 | – | 25 (≈ 5.91 µg/mL) | > 100 | 20.6 ± 0.3
5 | CCC(C)C1C=CC2C(O)C(OC(=O)C=C(C)CC(=O)O)CC(C)C2C1(C)C(=O)CCO (centres unmarked) [Compound 6, Tandyukisin J] | > 100 | > 100 | > 100 | > 100 | > 100 | – | 25 (≈ 11.3 µg/mL) | 6.25 (≈ 2.82 µg/mL) | 40.2 ± 0.7
6 | CC[C@@H](C)[C@H]1C=C[C@H]2[C@H](O)[C@H](OC(=O)/C=C(\C)CC(=O)O)C[C@@H](C)[C@@H]2[C@@]1(C)C(=O)CCO [Compound 7, trichoharzin] | > 100 | > 100 | > 100 | > 100 | > 100 | – | 50 (≈ 22.5 µg/mL) | 12.5 (≈ 5.63 µg/mL) | 38.3 ± 0.4
7 | CC[C@@H](C)[C@H]1C=C[C@H]2[C@H](O)[C@H](OC(=O)C/C(C)=C\C(=O)O)C[C@@H](C)[C@@H]2[C@@]1(C)C(=O)CCO [Compound 8, tandyukisin D] | > 100 | > 100 | > 100 | 50 (≈ 22.5 µg/mL) | 50 (≈ 22.5 µg/mL) | – | 50 (≈ 22.5 µg/mL) | 12.5 (≈ 5.63 µg/mL) | 77.9 ± 1.7
8 | CC[C@@H](C)[C@H]1C=C[C@H]2[C@H](O)[C@H](OC(=O)C/C(C)=C/C(=O)O)C[C@@H](C)[C@@H]2[C@@]1(C)C(=O)CCO [Compound 9, tandyukisin G] | > 100 | 50 (≈ 22.5 µg/mL) | > 100 | > 100 | 50 (≈ 22.5 µg/mL) | – | 25 (≈ 11.3 µg/mL) | 6.25 (≈ 2.82 µg/mL) | 43.6 ± 0.4
9 | CC[C@@H](C)[C@H]1C=C[C@H]2[C@H](OC(=O)C/C(C)=C\C(=O)O)[C@H](O)C[C@@H](C)[C@@H]2[C@@]1(C)C(=O)CCO [Compound 10, tandyukisin C] | > 100 | > 100 | > 100 | > 100 | > 100 | – | 25 (≈ 11.3 µg/mL) | 50 (≈ 22.5 µg/mL) | 50.9 ± 0.5
10 | CC[C@@H](C)[C@H]1C=C[C@H]2[C@H](O)[C@H](O)C[C@@H](C)[C@@H]2[C@@]1(C)C(=O)CCO [Eujavanicol A, eujavanicol A] | > 100 | > 100 | > 100 | > 100 | > 100 | – | 25 (≈ 8.11 µg/mL) | 25 (≈ 8.11 µg/mL) | 32.4 ± 0.7
11 | CC(=O)N1CCN(c2ccc(OCC3COC(Cn4ccnc4)(c4ccc(Cl)cc4Cl)O3)cc2)CC1 (centres unmarked) [Ketoconazole, reference compound] | – | – | – | – | – | – | 0.13 (≈ 0.0691 µg/mL) | 1.56 (≈ 0.829 µg/mL) | –

Source: paper PMC10672575, “The Polyketides with Antimicrobial Activities from a Mangrove Endophytic Fungus Trichoderma lentiforme ML-P8-2” (Marine Drugs, 2023)
